In the kinase profiling compilation of Christmann-Franck et al. (2016):
Several values for one entry are separate records, joined by “and”; a condition that tells them apart may be missing. Identical values can stand only once.

Experiments:
Test in all cases: KINOMEscan competition binding
Settings in all cases: compound 10.0 µM
PRKG1 (human) = PRKG1 (human) (UniProt Q13976)
PHKG1 (human) = PHKG1 (human) (UniProt Q16816)
DCLK3 (human) = DCLK3 (human) (UniProt Q9C098)
CLK2 (human) = CLK2 (human) (UniProt P49760)
CDK4 CCND1 (human) = CDK4 CCND1 (human) (UniProt P11802+P24385)
WEE1 (human) = WEE1 (human) (UniProt P30291)
ROS1 (human) = ROS1 (human) (UniProt P08922)
MAP3K4 (human) = MAP3K4 (human) (UniProt Q9Y6R4)
CSNK1A1L (human) = CSNK1A1L (human) (UniProt Q8N752)
PRKG2 (human) = PRKG2 (human) (UniProt Q13237)
FLT3 (human) = FLT3 (human) (UniProt P36888)
ACVR2B (human) = ACVR2B (human) (UniProt Q13705)
MAPK13 (human) = MAPK13 (human) (UniProt O15264)
ALK (human) = ALK (human) (UniProt Q9UM73)
PIP5K1C (human) = PIP5K1C (human) (UniProt O60331)
EPHB6 (human) = EPHB6 (human) (UniProt O15197)
IRAK1 (human) = IRAK1 (human) (UniProt P51617)
INSRR (human) = INSRR (human) (UniProt P14616)
PRKAA2 (human) = PRKAA2 (human) (UniProt P54646)
TNK1 (human) = TNK1 (human) (UniProt Q13470)
TLK1 (human) = TLK1 (human) (UniProt Q9UKI8)
CLK4 (human) = CLK4 (human) (UniProt Q9HAZ1)
TEK (human) = TEK (human) (UniProt Q02763)
ERBB3 (human) = ERBB3 (human) (UniProt P21860)
PRKACB (human) = PRKACB (human) (UniProt P22694)
RPS6KA6 KD1 (human) = RPS6KA6 KD1 (human) (UniProt Q9UK32)
DAPK2 (human) = DAPK2 (human) (UniProt Q9UIK4)
NUAK1 (human) = NUAK1 (human) (UniProt O60285)
STK32B (human) = STK32B (human) (UniProt Q9NY57)
STK38L (human) = STK38L (human) (UniProt Q9Y2H1)
MAP3K3 (human) = MAP3K3 (human) (UniProt Q99759)
EPHA3 (human) = EPHA3 (human) (UniProt P29320)
MAPK4 (human) = MAPK4 (human) (UniProt P31152)
EPHA2 (human) = EPHA2 (human) (UniProt P29317)
PKN1 (human) = PKN1 (human) (UniProt Q16512)
CDKL2 (human) = CDKL2 (human) (UniProt Q92772)
IKBKE (human) = IKBKE (human) (UniProt Q14164)
MAPK15 (human) = MAPK15 (human) (UniProt Q8TD08)
FER (human) = FER (human) (UniProt P16591)
MAP2K1 (human) = MAP2K1 (human) (UniProt Q02750)
MAP2K1 (human), sequence (Q02750 whole entry, looked up): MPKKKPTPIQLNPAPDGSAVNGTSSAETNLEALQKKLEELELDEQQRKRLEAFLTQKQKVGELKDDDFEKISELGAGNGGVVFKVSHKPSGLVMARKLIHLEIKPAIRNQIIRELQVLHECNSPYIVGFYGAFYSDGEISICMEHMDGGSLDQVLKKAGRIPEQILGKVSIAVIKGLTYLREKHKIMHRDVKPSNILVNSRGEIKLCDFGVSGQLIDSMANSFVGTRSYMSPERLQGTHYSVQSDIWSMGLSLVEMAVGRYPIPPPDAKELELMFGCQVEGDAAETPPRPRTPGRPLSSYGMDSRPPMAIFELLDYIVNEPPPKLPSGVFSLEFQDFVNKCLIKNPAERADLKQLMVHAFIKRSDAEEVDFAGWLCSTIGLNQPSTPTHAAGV

FLT3 (human), sequence (P36888 whole entry, looked up): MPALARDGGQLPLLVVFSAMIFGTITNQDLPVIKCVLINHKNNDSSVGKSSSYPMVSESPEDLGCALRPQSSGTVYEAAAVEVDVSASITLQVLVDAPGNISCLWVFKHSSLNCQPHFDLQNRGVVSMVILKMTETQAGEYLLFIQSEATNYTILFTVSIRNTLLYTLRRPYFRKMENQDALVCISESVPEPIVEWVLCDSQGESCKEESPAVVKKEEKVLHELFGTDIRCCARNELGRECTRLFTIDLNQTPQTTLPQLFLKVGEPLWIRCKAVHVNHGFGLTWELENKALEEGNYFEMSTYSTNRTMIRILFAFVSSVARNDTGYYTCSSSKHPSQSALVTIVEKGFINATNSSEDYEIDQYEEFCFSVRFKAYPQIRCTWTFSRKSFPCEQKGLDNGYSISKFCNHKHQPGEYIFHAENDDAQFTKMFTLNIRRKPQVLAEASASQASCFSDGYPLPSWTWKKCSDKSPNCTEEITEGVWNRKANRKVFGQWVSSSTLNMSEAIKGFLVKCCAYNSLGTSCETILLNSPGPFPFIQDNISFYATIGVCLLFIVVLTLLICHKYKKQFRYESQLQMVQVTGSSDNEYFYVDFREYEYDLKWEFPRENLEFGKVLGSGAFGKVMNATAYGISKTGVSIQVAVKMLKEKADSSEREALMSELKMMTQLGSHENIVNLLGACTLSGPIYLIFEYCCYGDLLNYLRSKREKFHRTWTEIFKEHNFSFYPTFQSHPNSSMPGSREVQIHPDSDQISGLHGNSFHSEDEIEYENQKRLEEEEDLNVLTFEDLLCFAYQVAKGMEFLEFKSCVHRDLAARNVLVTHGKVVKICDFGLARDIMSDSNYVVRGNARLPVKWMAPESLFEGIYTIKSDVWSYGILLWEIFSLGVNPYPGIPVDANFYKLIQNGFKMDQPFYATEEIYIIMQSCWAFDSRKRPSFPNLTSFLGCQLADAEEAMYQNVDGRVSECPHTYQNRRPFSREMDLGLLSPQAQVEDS
MAPK4 (human), sequence (P31152 whole entry, looked up): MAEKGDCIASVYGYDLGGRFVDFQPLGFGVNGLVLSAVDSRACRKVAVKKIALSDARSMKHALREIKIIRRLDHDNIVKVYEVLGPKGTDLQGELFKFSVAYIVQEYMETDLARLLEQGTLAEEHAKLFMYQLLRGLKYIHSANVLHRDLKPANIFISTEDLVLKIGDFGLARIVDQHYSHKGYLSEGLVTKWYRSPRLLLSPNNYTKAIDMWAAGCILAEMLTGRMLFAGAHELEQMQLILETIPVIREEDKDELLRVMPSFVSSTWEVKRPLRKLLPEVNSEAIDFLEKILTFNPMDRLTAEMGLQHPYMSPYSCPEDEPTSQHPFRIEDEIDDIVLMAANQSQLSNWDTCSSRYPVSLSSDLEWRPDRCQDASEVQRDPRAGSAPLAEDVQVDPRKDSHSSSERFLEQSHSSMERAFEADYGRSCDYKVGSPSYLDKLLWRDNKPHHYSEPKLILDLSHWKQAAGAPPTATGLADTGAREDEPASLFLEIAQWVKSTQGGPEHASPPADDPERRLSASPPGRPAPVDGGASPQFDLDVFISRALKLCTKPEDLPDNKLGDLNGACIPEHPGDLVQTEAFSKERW
CLK4 (human), sequence (Q9HAZ1 whole entry, looked up): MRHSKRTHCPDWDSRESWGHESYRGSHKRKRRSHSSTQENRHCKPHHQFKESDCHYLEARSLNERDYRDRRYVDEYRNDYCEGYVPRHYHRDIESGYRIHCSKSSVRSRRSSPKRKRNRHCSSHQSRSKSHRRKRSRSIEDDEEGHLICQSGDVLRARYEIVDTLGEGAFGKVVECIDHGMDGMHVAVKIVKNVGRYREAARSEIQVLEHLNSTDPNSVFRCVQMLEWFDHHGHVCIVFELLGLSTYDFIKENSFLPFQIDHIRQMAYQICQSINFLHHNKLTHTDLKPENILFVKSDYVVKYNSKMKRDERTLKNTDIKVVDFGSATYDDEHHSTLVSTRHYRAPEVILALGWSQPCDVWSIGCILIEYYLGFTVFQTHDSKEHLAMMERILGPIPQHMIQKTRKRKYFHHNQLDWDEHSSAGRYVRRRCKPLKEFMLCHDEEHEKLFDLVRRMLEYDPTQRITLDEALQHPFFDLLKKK
MAP3K3 (human), sequence (Q99759 whole entry, looked up): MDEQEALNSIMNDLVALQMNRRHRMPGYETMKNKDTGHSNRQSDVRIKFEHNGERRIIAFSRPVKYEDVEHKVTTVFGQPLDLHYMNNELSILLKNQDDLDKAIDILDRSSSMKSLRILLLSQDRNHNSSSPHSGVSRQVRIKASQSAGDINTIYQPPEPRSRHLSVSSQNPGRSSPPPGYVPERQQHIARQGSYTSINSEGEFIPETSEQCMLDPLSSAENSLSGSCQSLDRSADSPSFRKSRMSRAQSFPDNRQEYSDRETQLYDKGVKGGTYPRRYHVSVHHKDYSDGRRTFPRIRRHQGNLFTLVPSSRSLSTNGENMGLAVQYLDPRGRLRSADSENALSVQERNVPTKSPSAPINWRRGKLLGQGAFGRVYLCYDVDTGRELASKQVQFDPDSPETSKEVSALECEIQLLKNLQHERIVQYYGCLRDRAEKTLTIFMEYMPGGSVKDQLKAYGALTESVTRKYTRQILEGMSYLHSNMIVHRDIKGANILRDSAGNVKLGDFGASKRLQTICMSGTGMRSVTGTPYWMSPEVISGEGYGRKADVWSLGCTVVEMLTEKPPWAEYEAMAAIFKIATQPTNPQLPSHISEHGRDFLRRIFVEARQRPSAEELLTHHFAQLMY
TLK1 (human), sequence (Q9UKI8 whole entry, looked up): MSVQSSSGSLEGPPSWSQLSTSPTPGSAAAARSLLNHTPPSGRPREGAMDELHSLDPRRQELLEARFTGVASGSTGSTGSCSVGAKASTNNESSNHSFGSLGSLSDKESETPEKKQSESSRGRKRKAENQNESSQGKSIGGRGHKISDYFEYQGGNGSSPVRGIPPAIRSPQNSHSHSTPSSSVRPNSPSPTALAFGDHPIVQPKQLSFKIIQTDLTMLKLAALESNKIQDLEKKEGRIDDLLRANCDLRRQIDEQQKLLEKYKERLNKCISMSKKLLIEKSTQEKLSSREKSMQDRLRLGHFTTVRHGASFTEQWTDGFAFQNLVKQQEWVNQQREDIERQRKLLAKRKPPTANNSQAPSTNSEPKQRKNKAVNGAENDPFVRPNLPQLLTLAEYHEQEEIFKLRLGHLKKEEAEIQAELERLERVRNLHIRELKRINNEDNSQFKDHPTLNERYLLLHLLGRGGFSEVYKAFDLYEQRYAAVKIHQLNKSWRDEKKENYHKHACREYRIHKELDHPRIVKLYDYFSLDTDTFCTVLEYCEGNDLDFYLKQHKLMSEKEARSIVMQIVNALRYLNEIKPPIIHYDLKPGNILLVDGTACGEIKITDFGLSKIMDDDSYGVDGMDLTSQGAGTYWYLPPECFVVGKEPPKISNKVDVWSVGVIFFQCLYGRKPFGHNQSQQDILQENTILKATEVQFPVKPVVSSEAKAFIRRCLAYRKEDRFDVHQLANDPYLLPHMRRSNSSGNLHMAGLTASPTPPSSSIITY
STK32B (human), sequence (Q9NY57 whole entry, looked up): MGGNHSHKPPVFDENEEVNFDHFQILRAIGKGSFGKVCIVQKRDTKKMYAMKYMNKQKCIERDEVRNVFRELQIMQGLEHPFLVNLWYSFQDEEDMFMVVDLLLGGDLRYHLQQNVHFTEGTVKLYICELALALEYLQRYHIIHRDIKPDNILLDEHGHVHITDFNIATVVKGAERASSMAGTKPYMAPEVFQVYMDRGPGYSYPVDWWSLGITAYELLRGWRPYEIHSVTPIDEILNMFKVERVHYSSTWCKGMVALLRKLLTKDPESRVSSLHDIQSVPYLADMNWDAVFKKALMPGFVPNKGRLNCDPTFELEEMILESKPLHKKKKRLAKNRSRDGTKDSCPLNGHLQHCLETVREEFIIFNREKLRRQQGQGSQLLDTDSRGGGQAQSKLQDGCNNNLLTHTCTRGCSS
PHKG1 (human), sequence (Q16816 whole entry, looked up): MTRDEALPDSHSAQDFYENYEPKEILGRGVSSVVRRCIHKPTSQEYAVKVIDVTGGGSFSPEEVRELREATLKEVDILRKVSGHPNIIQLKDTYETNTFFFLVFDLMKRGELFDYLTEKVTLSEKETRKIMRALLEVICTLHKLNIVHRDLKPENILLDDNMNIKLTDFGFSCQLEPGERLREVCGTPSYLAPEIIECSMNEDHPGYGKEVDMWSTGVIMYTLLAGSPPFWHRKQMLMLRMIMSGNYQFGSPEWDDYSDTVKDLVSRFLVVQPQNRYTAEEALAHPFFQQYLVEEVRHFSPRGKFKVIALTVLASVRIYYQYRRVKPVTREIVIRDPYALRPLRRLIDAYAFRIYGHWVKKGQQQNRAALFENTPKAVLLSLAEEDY
MAPK13 (human), sequence (O15264 whole entry, looked up): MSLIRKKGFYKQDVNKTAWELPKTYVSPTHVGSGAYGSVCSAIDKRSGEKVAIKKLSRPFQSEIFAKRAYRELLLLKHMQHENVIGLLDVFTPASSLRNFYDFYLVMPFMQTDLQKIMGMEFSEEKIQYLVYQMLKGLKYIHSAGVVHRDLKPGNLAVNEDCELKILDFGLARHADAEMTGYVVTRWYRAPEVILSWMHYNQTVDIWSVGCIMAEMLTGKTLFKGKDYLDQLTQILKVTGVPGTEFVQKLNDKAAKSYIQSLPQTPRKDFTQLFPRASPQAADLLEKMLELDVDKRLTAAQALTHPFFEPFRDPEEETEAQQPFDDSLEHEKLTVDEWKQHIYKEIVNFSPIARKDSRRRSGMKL

Row | SMILES | kinase still bound, per cent of control (PRKG1 (human)) [%] | kinase still bound, per cent of control (PHKG1 (human)) [%] | kinase still bound, per cent of control (DCLK3 (human)) [%] | kinase still bound, per cent of control (CLK2 (human)) [%] | kinase still bound, per cent of control (CDK4 CCND1 (human)) [%] | kinase still bound, per cent of control (WEE1 (human)) [%] | kinase still bound, per cent of control (ROS1 (human)) [%] | kinase still bound, per cent of control (MAP3K4 (human)) [%] | kinase still bound, per cent of control (CSNK1A1L (human)) [%] | kinase still bound, per cent of control (PRKG2 (human)) [%] | kinase still bound, per cent of control (FLT3 (human)) | kinase still bound, per cent of control (ACVR2B (human)) [%] | kinase still bound, per cent of control (MAPK13 (human)) [%] | kinase still bound, per cent of control (ALK (human)) [%] | kinase still bound, per cent of control (PIP5K1C (human)) [%] | kinase still bound, per cent of control (EPHB6 (human)) [%] | kinase still bound, per cent of control (IRAK1 (human)) [%] | kinase still bound, per cent of control (INSRR (human)) [%] | kinase still bound, per cent of control (PRKAA2 (human)) [%] | kinase still bound, per cent of control (TNK1 (human)) [%] | further results
1 | CCCS(=O)(=O)Nc1ccc(F)c(C(=O)c2c[nH]c3ncc(Cl)cc23)c1F | 100 | 100 | 26 | 10 | 64 | 100 | 34 | 92 | 100 | 93 | 14% | 28 | 85 | 14 | 79 | 3.6 | 60 | 89 | 46 | 96 | kinase still bound, per cent of control (TLK1 (human)): 58%; kinase still bound, per cent of control (CLK4 (human)): 51%; kinase still bound, per cent of control (TEK (human)): 100%; kinase still bound, per cent of control (ERBB3 (human)): 28%; kinase still bound, per cent of control (PRKACB (human)): 100%; kinase still bound, per cent of control (RPS6KA6 KD1 (human)): 80%; kinase still bound, per cent of control (DAPK2 (human)): 80%; kinase still bound, per cent of control (NUAK1 (human)): 100%; kinase still bound, per cent of control (STK32B (human)): 100%; kinase still bound, per cent of control (STK38L (human)): 71%; kinase still bound, per cent of control (MAP3K3 (human)): 61%; kinase still bound, per cent of control (EPHA3 (human)): 65%; kinase still bound, per cent of control (MAPK4 (human)): 100%; kinase still bound, per cent of control (EPHA2 (human)): 100%; kinase still bound, per cent of control (PKN1 (human)): 85%; kinase still bound, per cent of control (CDKL2 (human)): 49%; kinase still bound, per cent of control (IKBKE (human)): 91%; kinase still bound, per cent of control (MAPK15 (human)): 97%; kinase still bound, per cent of control (FER (human)): 58%; kinase still bound, per cent of control (MAP2K1 (human)): 0.8%
2 | CNC(=O)Nc1ccc(-c2nc(N3CC4CCC(C3)O4)c3cnn(C4CCC5(CC4)OCCO5)c3n2)cc1 | 100 | 100 | 100 | 98 | 90 | 79 | 81 | 86 | 100 | 88 | 75% and 77% | 77 | 16 | 42 | 100 | 83 | 100 | 100 | 93 | 78 | kinase still bound, per cent of control (TLK1 (human)): 86%; kinase still bound, per cent of control (CLK4 (human)): 88%; kinase still bound, per cent of control (TEK (human)): 100%; kinase still bound, per cent of control (ERBB3 (human)): 100%; kinase still bound, per cent of control (PRKACB (human)): 87%; kinase still bound, per cent of control (RPS6KA6 KD1 (human)): 87%; kinase still bound, per cent of control (DAPK2 (human)): 100%; kinase still bound, per cent of control (NUAK1 (human)): 82%; kinase still bound, per cent of control (STK32B (human)): 86%; kinase still bound, per cent of control (STK38L (human)): 100%; kinase still bound, per cent of control (MAP3K3 (human)): 100%; kinase still bound, per cent of control (EPHA3 (human)): 100%; kinase still bound, per cent of control (MAPK4 (human)): 100%; kinase still bound, per cent of control (EPHA2 (human)): 81%; kinase still bound, per cent of control (PKN1 (human)): 100%; kinase still bound, per cent of control (CDKL2 (human)): 100%; kinase still bound, per cent of control (IKBKE (human)): 100%; kinase still bound, per cent of control (MAPK15 (human)): 25%; kinase still bound, per cent of control (FER (human)): 100%; kinase still bound, per cent of control (MAP2K1 (human)): 100%
